Measured values taken from ChEMBL document CHEMBL1201862, “PubChem BioAssay data set” (2004).
The source made the active and inactive calls.

What was measured:
[1] = molecular target: T1, Methionyl-tRNA synthetase, putative (Trypanosoma brucei brucei, UniProt Q38C91); format: functional, Trypanosoma brucei brucei strain 927/4 GUTat10.1
T1 sequence (Q38C91 whole entry): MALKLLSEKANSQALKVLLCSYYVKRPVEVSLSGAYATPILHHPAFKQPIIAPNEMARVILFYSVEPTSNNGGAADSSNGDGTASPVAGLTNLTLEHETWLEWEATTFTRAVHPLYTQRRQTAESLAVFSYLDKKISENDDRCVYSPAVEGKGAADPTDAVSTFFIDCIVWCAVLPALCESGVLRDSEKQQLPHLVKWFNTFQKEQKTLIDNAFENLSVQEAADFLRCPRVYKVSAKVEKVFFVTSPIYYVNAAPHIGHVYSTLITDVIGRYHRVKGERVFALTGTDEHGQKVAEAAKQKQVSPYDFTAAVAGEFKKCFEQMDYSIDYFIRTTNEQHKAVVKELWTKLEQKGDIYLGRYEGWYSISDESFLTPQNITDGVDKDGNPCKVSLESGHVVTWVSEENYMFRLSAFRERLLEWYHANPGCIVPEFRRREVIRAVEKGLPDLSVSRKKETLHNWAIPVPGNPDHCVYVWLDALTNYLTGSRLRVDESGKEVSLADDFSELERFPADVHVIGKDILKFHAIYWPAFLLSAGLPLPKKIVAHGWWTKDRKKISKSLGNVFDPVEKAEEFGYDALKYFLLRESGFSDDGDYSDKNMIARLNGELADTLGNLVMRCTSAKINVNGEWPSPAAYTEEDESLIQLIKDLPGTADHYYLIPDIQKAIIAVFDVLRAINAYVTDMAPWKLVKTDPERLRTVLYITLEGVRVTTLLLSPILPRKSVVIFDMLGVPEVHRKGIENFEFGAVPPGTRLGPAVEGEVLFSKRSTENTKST

[2] = Counterscreen for inhibitors of Trypanosoma brucei methionyl tRNA synthetase (MetRS): Luminescence-based cell-based high throughput dose response assay to identify compounds that are cytotoxic to Jurkat human T lymphocyte cells.; format: functional
[3] = molecular target: T1, Methionyl-tRNA synthetase, putative; format: functional, Trypanosoma brucei brucei strain 927/4 GUTat10.1; remark: listed apart in the source
[4] = viability of uninfected HEp-2 cells – cell-based, HTS, cytotoxicity control for RSV inhibitor project, dose response (AID 2410); format: functional; settings: human respiratory syncytial virus
[5] = molecular target: T2, DNA repair and recombination protein RAD54-like (Homo sapiens, UniProt Q92698); experiment: RAD54 Holliday junction migration blockers – biochemical, fluorescence, cherry-picked samples, dose series, confirmation (AID 651657); format: functional
T2 sequence (Q92698 whole entry): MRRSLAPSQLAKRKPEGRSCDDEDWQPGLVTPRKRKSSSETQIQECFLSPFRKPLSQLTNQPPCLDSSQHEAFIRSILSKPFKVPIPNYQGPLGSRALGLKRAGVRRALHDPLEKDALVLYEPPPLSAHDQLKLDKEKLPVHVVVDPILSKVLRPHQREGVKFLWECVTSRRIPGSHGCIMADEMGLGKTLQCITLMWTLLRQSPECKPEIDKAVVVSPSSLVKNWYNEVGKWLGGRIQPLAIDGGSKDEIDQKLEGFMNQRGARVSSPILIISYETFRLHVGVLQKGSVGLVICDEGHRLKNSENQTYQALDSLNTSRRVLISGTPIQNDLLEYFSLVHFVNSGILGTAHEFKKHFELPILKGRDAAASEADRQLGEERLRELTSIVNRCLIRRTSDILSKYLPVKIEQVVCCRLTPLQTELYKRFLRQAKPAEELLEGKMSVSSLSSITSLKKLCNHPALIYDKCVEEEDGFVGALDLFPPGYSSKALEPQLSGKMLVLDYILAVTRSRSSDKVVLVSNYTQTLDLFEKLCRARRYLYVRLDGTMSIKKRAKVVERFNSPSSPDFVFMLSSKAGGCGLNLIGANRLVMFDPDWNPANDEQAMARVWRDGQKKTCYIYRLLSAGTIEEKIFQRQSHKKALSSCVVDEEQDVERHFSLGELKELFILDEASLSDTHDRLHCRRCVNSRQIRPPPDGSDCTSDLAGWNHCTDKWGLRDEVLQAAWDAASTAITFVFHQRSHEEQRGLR

[6] = molecular target: T3, DNA repair protein RAD52 homolog (Homo sapiens, UniProt P43351); format: functional, biochemical
T3 sequence (P43351 whole entry): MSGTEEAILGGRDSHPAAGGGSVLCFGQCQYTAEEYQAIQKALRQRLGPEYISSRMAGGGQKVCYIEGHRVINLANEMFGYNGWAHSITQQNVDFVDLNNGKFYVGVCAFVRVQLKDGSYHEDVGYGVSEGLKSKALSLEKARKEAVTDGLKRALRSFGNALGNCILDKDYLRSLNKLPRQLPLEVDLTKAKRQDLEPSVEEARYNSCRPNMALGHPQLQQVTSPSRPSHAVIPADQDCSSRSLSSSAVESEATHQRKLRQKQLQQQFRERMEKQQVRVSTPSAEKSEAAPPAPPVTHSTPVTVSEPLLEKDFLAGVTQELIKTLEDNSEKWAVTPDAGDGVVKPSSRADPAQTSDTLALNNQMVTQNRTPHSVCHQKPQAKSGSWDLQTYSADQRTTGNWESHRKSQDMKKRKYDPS

[7] = molecular target: 5-hydroxytryptamine receptor 2A (Mus musculus, UniProt P35363); format: functional, cell-based;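 further: CHO-K1 cells with tagged receptor and beta-arrestin; agonist potency measured as compound-induced activation of the receptor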
Sequence of 5-hydroxytryptamine receptor 2A (P35363 whole entry): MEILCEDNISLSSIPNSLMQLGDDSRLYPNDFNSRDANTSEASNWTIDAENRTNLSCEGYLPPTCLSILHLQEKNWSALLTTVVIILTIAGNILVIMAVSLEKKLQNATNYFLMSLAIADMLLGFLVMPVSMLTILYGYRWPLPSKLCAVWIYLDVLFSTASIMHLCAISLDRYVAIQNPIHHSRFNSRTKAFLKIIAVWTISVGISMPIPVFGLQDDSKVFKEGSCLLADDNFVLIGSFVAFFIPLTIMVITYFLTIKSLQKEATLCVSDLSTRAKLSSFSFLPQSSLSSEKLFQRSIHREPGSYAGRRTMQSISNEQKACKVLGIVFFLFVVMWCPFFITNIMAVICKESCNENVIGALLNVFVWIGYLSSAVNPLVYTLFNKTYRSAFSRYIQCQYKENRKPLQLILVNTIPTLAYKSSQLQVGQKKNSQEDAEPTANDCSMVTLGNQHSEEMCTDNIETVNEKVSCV

Mu-type opioid receptor = Mu-type opioid receptor (Homo sapiens, UniProt P35372); format: functional, cell-based;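 further: U2OS cells with beta-arrestin recruitment to OPRM1 by beta-gal complementation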
Sequence of Mu-type opioid receptor (P35372 whole entry, the tested form may be a part): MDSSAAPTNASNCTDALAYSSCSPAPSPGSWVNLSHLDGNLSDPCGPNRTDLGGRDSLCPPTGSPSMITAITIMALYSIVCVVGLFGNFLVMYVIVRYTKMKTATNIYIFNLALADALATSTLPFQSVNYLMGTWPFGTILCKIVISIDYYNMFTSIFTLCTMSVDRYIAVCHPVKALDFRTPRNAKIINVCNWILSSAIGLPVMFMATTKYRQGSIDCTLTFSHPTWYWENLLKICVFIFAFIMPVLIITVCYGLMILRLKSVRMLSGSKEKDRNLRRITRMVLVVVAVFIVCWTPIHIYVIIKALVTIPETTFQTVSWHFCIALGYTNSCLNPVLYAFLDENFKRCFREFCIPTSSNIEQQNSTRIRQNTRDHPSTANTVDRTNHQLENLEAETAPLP

[8] = molecular target: T4, Polyadenylate-binding protein 1 (Homo sapiens, UniProt P11940); experiment: MLLE domain peptide-binding blockers, IC50 – biochemical, fluorescence polarization, FITC-PAM2 peptide, dose response (AID 602259); format: functional; settings: read-out: IC50_Mean
T4 sequence (P11940 whole entry, the tested form may be a part): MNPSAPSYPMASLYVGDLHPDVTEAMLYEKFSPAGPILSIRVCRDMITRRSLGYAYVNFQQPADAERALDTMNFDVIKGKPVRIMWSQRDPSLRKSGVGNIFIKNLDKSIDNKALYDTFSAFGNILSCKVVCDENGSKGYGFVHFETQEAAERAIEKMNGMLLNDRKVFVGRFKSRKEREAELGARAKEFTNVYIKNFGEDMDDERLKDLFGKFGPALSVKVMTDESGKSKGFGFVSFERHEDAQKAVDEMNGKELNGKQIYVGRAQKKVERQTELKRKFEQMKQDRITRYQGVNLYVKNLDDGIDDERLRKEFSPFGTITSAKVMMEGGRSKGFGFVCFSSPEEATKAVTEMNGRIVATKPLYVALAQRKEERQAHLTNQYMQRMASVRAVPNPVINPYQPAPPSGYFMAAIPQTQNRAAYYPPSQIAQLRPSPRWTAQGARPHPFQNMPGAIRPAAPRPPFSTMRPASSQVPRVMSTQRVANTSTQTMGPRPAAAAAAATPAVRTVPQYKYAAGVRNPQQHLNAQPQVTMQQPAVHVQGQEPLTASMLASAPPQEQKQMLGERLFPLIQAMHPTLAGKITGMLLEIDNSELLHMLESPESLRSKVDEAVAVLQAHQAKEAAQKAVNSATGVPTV

[9] = molecular target: T4, Polyadenylate-binding protein 1; experiment: MLLE binding blockers, Cy5 peptide tracer – biochemical, fluorescence polarization, Cy5-PAM2 peptide, secondary, miRNA deadenylation inhibitor project, dose response (AID 602260); format: functional; settings: read-out: IC50_Mean
[10] = molecular target: Glucose-6-phosphate 1-dehydrogenase (Homo sapiens, UniProt P11413); experiment: inhibition of Homo sapiens G6PD, dose series – biochemical, fluorescence, selectivity assay for P. falciparum G6PD inhibitor project, dose response (AID 504792); format: functional
Sequence of Glucose-6-phosphate 1-dehydrogenase (P11413 whole entry): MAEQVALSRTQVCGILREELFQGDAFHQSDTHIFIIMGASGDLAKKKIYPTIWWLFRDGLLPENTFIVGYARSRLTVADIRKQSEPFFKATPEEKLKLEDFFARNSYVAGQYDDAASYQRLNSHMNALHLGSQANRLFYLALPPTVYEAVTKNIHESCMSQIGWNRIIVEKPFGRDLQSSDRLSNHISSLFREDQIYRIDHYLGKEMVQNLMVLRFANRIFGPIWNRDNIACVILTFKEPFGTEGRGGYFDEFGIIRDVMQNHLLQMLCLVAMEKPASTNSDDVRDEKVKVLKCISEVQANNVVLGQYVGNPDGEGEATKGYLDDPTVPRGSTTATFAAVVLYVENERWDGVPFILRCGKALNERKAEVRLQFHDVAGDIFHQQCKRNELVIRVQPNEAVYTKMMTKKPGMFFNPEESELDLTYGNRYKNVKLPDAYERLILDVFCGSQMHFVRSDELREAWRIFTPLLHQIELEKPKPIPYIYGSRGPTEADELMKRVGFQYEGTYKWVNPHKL

Genome polyprotein = Genome polyprotein (dengue virus type 2, UniProt P29990); experiment: flavivirus cap methylation enzyme inhibition – biochemical, confirmation dose response, primary screen (AID 588689); format: functional
Sequence of Genome polyprotein (P29990 2492-3391 limits assumed): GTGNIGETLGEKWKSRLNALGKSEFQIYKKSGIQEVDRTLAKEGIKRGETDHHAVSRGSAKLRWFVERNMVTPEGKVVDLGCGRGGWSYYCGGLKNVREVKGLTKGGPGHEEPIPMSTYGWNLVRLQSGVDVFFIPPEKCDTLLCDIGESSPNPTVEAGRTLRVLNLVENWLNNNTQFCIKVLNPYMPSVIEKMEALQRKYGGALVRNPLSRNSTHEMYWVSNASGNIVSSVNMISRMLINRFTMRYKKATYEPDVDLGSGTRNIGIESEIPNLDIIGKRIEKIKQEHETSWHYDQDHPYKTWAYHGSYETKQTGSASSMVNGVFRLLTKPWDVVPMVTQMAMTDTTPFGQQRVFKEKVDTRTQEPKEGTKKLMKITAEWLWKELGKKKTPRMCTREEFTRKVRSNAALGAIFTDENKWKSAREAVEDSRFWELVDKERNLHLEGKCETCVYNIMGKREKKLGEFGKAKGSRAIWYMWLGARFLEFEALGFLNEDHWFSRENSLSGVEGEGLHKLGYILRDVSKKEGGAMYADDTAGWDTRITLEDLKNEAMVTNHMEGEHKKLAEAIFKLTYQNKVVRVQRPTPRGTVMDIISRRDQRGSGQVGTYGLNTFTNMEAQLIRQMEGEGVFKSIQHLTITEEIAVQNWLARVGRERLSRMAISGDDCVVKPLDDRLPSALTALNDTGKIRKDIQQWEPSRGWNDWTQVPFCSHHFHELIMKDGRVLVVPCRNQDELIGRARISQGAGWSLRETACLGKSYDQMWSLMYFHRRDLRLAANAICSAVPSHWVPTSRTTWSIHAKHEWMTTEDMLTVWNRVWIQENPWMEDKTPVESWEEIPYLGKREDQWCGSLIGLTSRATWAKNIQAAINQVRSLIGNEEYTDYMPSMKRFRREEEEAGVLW

Streptokinase A = molecular target: T5, Streptokinase A (Streptococcus pyogenes serotype M1, UniProt P10520); experiment: viability-normalized secreted streptokinase activity reduction – plasminogen activation absorbance, OD405, dose response (AID 1914); format: functional, Streptococcus pyogenes M1 GAS;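 further: secreted streptokinase activity via plasminogen activation per viability signal from cell pellet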
T5 sequence (P10520 whole entry): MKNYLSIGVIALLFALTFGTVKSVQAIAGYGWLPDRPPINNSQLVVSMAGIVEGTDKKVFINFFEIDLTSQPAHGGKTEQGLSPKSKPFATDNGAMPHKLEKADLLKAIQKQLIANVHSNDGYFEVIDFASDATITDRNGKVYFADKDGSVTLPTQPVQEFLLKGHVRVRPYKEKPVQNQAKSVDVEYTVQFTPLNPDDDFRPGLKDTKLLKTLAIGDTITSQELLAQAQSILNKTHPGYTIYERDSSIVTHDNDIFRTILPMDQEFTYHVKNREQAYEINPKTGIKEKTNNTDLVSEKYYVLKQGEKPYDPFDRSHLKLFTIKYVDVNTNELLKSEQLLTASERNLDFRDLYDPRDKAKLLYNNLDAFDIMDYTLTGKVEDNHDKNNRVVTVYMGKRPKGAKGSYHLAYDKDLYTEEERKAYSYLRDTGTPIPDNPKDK

[11] = molecular target: T6, Calpain-2 catalytic subunit (Sus scrofa, UniProt P43367); experiment: m-calpain protease blockers, concentration series – biochemical, fluorogenic peptide substrate, dose response (AID 1420); format: functional
T6 sequence (P43367 whole entry): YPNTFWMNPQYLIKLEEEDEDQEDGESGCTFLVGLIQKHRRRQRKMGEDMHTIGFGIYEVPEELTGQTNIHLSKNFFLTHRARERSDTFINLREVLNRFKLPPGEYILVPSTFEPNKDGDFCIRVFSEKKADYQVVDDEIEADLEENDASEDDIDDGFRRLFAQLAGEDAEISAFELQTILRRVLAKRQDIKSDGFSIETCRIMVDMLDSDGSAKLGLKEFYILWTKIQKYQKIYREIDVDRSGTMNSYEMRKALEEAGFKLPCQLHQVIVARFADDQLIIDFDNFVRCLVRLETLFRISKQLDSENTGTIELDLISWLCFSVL

Large T antigen = Large T antigen (Simian virus 40, UniProt P03070); format: functional, Betapolyomavirus macacae;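 further: Confirmatory-stage PubChem screen for compounds that inhibit SV40 T antigen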
Sequence of Large T antigen (P03070 whole entry): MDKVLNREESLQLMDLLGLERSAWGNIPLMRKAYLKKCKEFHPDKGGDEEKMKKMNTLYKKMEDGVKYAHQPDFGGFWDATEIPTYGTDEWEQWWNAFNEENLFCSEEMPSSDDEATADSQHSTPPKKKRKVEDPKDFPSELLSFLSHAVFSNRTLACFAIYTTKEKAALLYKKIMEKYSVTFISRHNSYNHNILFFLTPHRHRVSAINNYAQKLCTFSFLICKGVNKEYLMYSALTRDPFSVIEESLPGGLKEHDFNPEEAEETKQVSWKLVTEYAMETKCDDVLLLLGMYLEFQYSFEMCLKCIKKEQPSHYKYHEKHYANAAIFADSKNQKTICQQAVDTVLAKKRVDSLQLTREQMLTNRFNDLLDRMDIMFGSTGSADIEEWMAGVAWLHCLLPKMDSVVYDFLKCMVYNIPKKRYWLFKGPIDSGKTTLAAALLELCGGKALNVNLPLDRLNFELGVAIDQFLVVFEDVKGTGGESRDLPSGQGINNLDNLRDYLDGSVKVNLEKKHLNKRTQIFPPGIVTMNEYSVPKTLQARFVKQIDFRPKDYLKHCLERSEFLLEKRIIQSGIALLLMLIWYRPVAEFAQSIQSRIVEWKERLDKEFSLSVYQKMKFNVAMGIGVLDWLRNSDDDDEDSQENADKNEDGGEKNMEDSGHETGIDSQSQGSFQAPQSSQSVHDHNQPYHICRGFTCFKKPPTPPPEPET

[12] = molecular target: T7, Sentrin-specific protease 8 (Homo sapiens, UniProt Q96LD8); format: functional
T7 sequence (Q96LD8 whole entry): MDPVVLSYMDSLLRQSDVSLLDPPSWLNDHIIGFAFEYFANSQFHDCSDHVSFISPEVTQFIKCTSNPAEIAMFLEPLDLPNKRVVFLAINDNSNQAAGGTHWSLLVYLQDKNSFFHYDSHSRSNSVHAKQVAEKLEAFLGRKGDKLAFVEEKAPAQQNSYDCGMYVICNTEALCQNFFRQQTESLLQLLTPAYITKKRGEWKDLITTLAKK

[13] = molecular target: T7, Sentrin-specific protease 8; format: functional; remark: listed apart in the source
[14] = DRD fibroblast viability loss – cell-based, non-viral oncogenic, luminescence, dose response (AID 1934); format: functional; settings: Homo sapiens
[15] = molecular target: T8, Ubiquitin-conjugating enzyme E2 N (Homo sapiens, UniProt P61088); format: functional;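 further: Dose-response confirmation in a TR-FRET assay detecting UBC13-driven polyubiquitin chain formation, inhibition measured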
T8 sequence (P61088 whole entry): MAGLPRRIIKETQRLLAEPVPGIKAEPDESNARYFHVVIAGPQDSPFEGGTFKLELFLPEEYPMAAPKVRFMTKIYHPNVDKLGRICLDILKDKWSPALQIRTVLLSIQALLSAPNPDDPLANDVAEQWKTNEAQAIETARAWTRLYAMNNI

BJ [16] = experiment: BJ-TERT fibroblast viability loss – cell-based, RAS-independent, luminescence, dose response (AID 1933); format: functional; settings: Homo sapiens
BJ [17] = experiment: BJ-TERT-LT-ST fibroblast viability loss – cell-based, RAS-independent, luminescence, dose response (AID 1935); format: functional; settings: Homo sapiens;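 further: BJ fibroblasts immortalized with TERT plus LT and ST oncogenes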
BJ [18] = experiment: growth inhibition of engineered Ras-driven BJ cells – cell-based, alamar blue fluorescence, cherrypicked samples, dose response (AID 2631); format: functional; settings: Homo sapiens;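 further: confirmatory dose-response assay in RAS-dependent BJ fibroblasts engineered with TERT, LT and ST, with cytotoxicity read by fluorescence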
BJ [19] = experiment: cells; format: functional, cell-based; settings: Homo sapiens
[20] = Luminescence Cell-Based Dose Retest to Confirm Inhibitors of Cancer Stem Cells. [Related pubchem assays (depositor defined):AID2717, AID2721]; format: functional; settings: Homo sapiens
Streptococcus = experiment: GAS UMAA2166 growth inhibition – luminescence, BacTiterGlo, counter-screen for streptokinase expression inhibitor project, dose response (AID 1915); format: functional, organism-based;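 further: potency for reduction of bacterial viability or growth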
[21] = test system: Streptococcus sp. 'group A'; experiment: Streptococcus pyogenes SK(-)GAS viability under kanamycin – luminescence, BacTiterGlo, confirmation, counter-screen for streptokinase expression inhibitor project, dose response (AID 1900); format: functional, organism-based

O=C(Nc1ccc(C(=O)O)cc1)/C(=C\C=C\c1ccccc1)NC(=O)c1cccc(Br)c1
IC50 [1]: 45.6 µM (inactive)
IC50 [2]: 83.3 µM (inactive)
IC50 [3]: 60.7 µM (inactive)
CC50 [4]: 33.7 µM (active)

COc1ccc(OC)c(Nc2nc(NCCCN(C)C)nc(N)c2[N+](=O)[O-])c1
AC50 [5]: 20.2 µM (active)
AC50 [6]: 7.02 µM (active)

Fc1ccccc1CN1CCN(c2ncccn2)CC1
EC50 [7]: 1.26 µM (active)
EC50 (Mu-type opioid receptor): 92.5 µM (inactive)

COc1ccc(CC2(CO)CCN(C(C)COc3ccccc3)CC2)cc1 (centres undefined)
EC50 [7]: 0.115 µM (active)
EC50 (Mu-type opioid receptor): 92.4 µM (inactive)

Oc1cc(-n2cccn2)c(O)cc1-n1cccn1
IC50 [8]: > 66 µM (inactive)
IC50 [9]: > 66 µM (inactive)
IC50 [10]: 33 µM (inactive)
IC50 (Genome polyprotein): 79.2 µM (active)

CC(CNC(=S)Nc1cc(F)cc(F)c1)CSc1ccc(Cl)cc1 (centres undefined)
EC50 (Streptokinase A): 30 µM (active)
IC50 [1]: 23.9 µM (inactive)
IC50 [3]: 15.4 µM (inactive)
IC50 [11]: 13.5 µM (not active)

O=c1c(Cc2ccc(Cl)cc2Cl)c(O)ccn1Cc1ccncc1
IC50 [1]: 20 µM (inactive)
IC50 [2]: 83.2 µM (inactive)
IC50 [3]: 29.2 µM (inactive)

COc1ccc(N2CSC3=C(C#N)C(c4ccc(OC)c(OC)c4)CC(=O)N3C2)c(OC)c1 (centres undefined)
IC50 (Large T antigen): 52.7 µM (active)
IC50 [10]: > 80 µM (inactive)

Cc1cnc(C(=O)Nc2c(-c3ccccc3)[nH][nH]c2=O)cn1
IC50 [12]: 20.3 µM (active)
IC50 [13]: 30.3 µM (active)

CCS(=O)(=O)N1CCC(C(=O)N2CCc3ccccc3C2)CC1
IC50 [12]: > 100 µM (inactive)
IC50 [13]: 8.89 µM (active)

CCOC(=O)Nc1c2ccccc2nc2ccccc12
AC50 [5]: 54.8 µM (active)

CCN1CCN(c2cc(C)c3cc(NC(S)=NCCCN4CCc5ccccc5C4)ccc3n2)CC1
AC50 [5]: 20.6 µM (active)
AC50 [6]: 3 µM (active)

O=C(CCCCCN1C(=O)c2cccc3cccc(c23)C1=O)NCc1cccnc1
EC50 [14]: > 150 µM (not active)
IC50 [15]: > 20 µM (inactive)
EC50 (BJ [16]): > 150 µM (not active)
EC50 (BJ [17]): > 150 µM (inconclusive)
EC50 (BJ [18]): > 66.7 µM (inactive)
EC50 (BJ [19]): 3.59 µM (inconclusive)

COc1ccc(NC(=O)CSc2ccc(-c3ccccn3)nn2)cc1OC
EC50 [7]: 0.589 µM (active)
EC50 (Mu-type opioid receptor): 92.4 µM (inactive)

CC(CNC(S)=Nc1cc(F)cc(F)c1)CSc1ccc(Cl)cc1 (centres undefined)
AC50 [20]: 6.24 µM (active)
EC50 (Streptococcus): 36 µM (active)
IC50 [2]: 27.8 µM (inactive)
EC50 [21]: 8.3 µM (active)

O=C(CN1C(=O)CSC1=O)N1CCc2ccccc2C1
IC50 [12]: 80.8 µM (inactive)
IC50 [13]: 10.6 µM (active)
